From publication PMC8793051 (ACS Omega, 2022)

What was measured:
[1] = system: oligo-1: d(CGCGAATTCGCG)2; test: UV thermal denaturation; assay type: binding
[2] = system: oligo-2: d(CGATGTACATCG)2; test: UV thermal denaturation; assay type: binding
[3] = system: oligo-1: d(CGCGAATTCGCG)2; test: Fluorescence titration; assay type: binding; conditions: 20 °C, pH 7.2
[4] = system: oligo-2: d(CGATGTACATCG)2; test: Fluorescence titration; assay type: binding; conditions: 20 °C, pH 7.2
NIH3T3 = test: MTT cytotoxicity assay; assay type: cell-based; conditions: Mus musculus, NIH3T3, 48 h
MOLT-4 = test: NCI-60 SRB growth assay; assay type: cell-based, human; conditions: for GI50 / CC50: Homo sapiens; for GI50 / TGI: MOLT-4; for CC50: MOLT-4, read-out: LC50
A549/ATCC = test: NCI-60 SRB growth assay; assay type: cell-based, human; conditions: for TGI: A549/ATCC; for GI50: Homo sapiens, A549
EKVX = test: NCI-60 SRB growth assay; assay type: cell-based, human
NCI-H226 = test: NCI-60 SRB growth assay; assay type: cell-based, human; conditions: for GI50 / CC50: Homo sapiens; for GI50: NCI-H226; for CC50: NCI-H226, read-out: LC50; for TGI: NCI–H226
NCI-H460 = test: NCI-60 SRB growth assay; assay type: cell-based, human; conditions: for GI50 / CC50: Homo sapiens; for GI50: NCI-H460; for CC50: NCI-H460, read-out: LC50; for TGI: NCI–H460
NCI-H522 = test: NCI-60 SRB growth assay; assay type: cell-based, human; conditions: for GI50: NCI-H522; for TGI: NCI–H522
HT29 = test: NCI-60 SRB growth assay; assay type: cell-based, human; conditions: for TGI: HT29; for GI50 / CC50: Homo sapiens; for GI50: HT-29; for CC50: HT-29, read-out: LC50
KM12 = test: NCI-60 SRB growth assay; assay type: cell-based, human; conditions: for GI50 / CC50: Homo sapiens; for GI50 / TGI: KM12; for CC50: KM12, read-out: LC50
SF-295 = test: NCI-60 SRB growth assay; assay type: cell-based, human; conditions: for GI50: SF-295; for TGI: SF-265
U251 = test: NCI-60 SRB growth assay; assay type: cell-based, human; conditions: for GI50 / CC50: Homo sapiens; for GI50: U-251; for CC50: U-251, read-out: LC50; for TGI: U251
M14 = test: NCI-60 SRB growth assay; assay type: cell-based, human; conditions: for GI50 / CC50: Homo sapiens; for GI50 / TGI: M14; for CC50: M14, read-out: LC50
MDA-MB-435 = test: NCI-60 SRB growth assay; assay type: cell-based, human; conditions: for GI50 / CC50: Homo sapiens; for GI50 / TGI: MDA-MB-435; for CC50: MDA-MB-435, read-out: LC50
SK-MEL-28 = test: NCI-60 SRB growth assay; assay type: cell-based, human; conditions: for GI50 / CC50: Homo sapiens; for GI50 / TGI: SK-MEL-28; for CC50: SK-MEL-28, read-out: LC50
SK-MEL-5 = test: NCI-60 SRB growth assay; assay type: cell-based, human; conditions: for GI50 / CC50: Homo sapiens; for GI50 / TGI: SK-MEL-5; for CC50: SK-MEL-5, read-out: LC50
UACC-257 = test: NCI-60 SRB growth assay; assay type: cell-based, human; conditions: for GI50 / CC50: Homo sapiens; for GI50 / TGI: UACC-257; for CC50: UACC-257, read-out: LC50
IGROV1 = test: NCI-60 SRB growth assay; assay type: cell-based, human; conditions: for GI50: IGROV-1; for TGI: IGROV1
OVCAR-4 = test: NCI-60 SRB growth assay; assay type: cell-based, human; conditions: for GI50 / CC50: Homo sapiens; for GI50 / TGI: OVCAR-4; for CC50: OVCAR-4, read-out: LC50
OVCAR-5 = test: NCI-60 SRB growth assay; assay type: cell-based, human; conditions: for GI50 / CC50: Homo sapiens; for GI50 / TGI: OVCAR-5; for CC50: OVCAR-5, read-out: LC50
786-0 = test: NCI-60 SRB growth assay; assay type: cell-based, human; conditions: for TGI: 786–0; for GI50 / CC50: Homo sapiens; for GI50: 786-0; for CC50: 786-0, read-out: LC50
A498 = test: NCI-60 SRB growth assay; assay type: cell-based, human; conditions: for TGI / GI50: A498; for GI50 / CC50: Homo sapiens; for CC50: A498, read-out: LC50
ACHN = test: NCI-60 SRB growth assay; assay type: cell-based, human; conditions: for GI50 / CC50: Homo sapiens; for CC50: read-out: LC50
CAKI-1 = test: NCI-60 SRB growth assay; assay type: cell-based, human; conditions: for TGI / GI50: CAKI-1; for GI50 / CC50: Homo sapiens; for CC50: CAKI-1, read-out: LC50
RXF 393 = test: NCI-60 SRB growth assay; assay type: cell-based, human; conditions: for GI50: RXF 393; for TGI: RXF393
HS 578T = test: NCI-60 SRB growth assay; assay type: cell-based, human; conditions: for TGI: HS578T
BT-549 = test: NCI-60 SRB growth assay; assay type: cell-based, human; conditions: for TGI / GI50: BT-549
T-47D = test: NCI-60 SRB growth assay; assay type: cell-based, human; conditions: for GI50 / CC50: Homo sapiens, T47D; for CC50: read-out: LC50; for TGI: T-47D
[5] = system: panel of 60 human cancer cell lines; test: cells; conditions: read-out: GI50 concentration range

## CCCN1CCN(c2ccc3[nH]c(-c4ccc5[nH]c(-c6ccc(OCC)c(OCC)c6)nc5c4)nc3c2)CC1 [11a, 2-(2-(3,4-Diethoxyphenyl)-1H-benzo[d]imidazol-5-yl)-5-(4-propylpiperazin-1-yl)-1H-benzo[d]imidazole]
[1]; r = 0.5
  ΔTm: 3 °C
[1]; r = 0.5, oligo 2.5 μM
  Tm: 57.7 °C
[1]; r = 1
  Tm: 58.7 °C
  ΔTm: 4 °C
[1]; r = 1.5
  Tm: 60.7 °C
  ΔTm: 6 °C
[1]; r = 2.0
  Tm: 62.7 °C
  ΔTm: 8 °C
[2]; r = 0.5, oligo 2.5 μM
  Tm: 57.9 °C
[2]; r = 1
  Tm: 58.9 °C
  ΔTm: 2 °C
[2]; r = 1.5
  Tm: 58.9 °C
  ΔTm: 2 °C
[2]; r = 2.0
  ΔTm: 2 °C
[3]
  Ka binding affinity with oligo-1: 3 × 10^7 M^–1
[4]
  Ka binding affinity with oligo-2: 5 × 10^6 M^1
NIH3T3
  IC50: 2300 nM
MOLT-4
  GI50: 590 nM
  CC50: > 100000 nM
  TGI: 4400 nM
A549/ATCC
  TGI: 3020 nM
  GI50: 1170 nM
EKVX
  TGI: 13300 nM
EKVX; Homo sapiens
  GI50: 1730 nM
EKVX; Homo sapiens, read-out: LC50
  CC50: > 100000 nM
NCI-H226
  GI50: 800 nM
  CC50: 37500 nM
  TGI: 3500 nM
NCI-H460
  GI50: 430 nM
  CC50: 4380 nM
  TGI: 1510 nM
NCI-H522; Homo sapiens
  GI50: 450 nM
NCI-H522
  TGI: 2110 nM
HT29
  TGI: 2300 nM
  GI50: 450 nM
  CC50: > 100000 nM
KM12
  GI50: 1260 nM
  CC50: 6400 nM
  TGI: 2800 nM
SF-295; Homo sapiens
  GI50: 500 nM
SF-295; Homo sapiens, SF-295, read-out: LC50
  CC50: 7800 nM
SF-295
  TGI: 2300 nM
U251
  GI50: 420 nM
  CC50: 4800 nM
  TGI: 1800 nM
M14
  GI50: 250 nM
  CC50: 5000 nM
  TGI: 1500 nM
MDA-MB-435
  GI50: 670 nM
  CC50: 4500 nM
  TGI: 1900 nM
SK-MEL-28
  GI50: 910 nM
  CC50: 5200 nM
  TGI: 2200 nM
SK-MEL-5
  GI50: 630 nM
  CC50: 4600 nM
  TGI: 2010 nM
UACC-257
  GI50: 790 nM
  CC50: 9400 nM
  TGI: 2800 nM
IGROV1; Homo sapiens
  GI50: 760 nM
IGROV1; Homo sapiens, IGROV-1, read-out: LC50
  CC50: 37800 nM
IGROV1
  TGI: 4100 nM
OVCAR-4
  GI50: 690 nM
  CC50: 9500 nM
  TGI: 2800 nM
OVCAR-5
  GI50: 2090 nM
  CC50: 15900 nM
  TGI: 5010 nM
786-0
  TGI: 2500 nM
  GI50: 1130 nM
  CC50: 5540 nM
A498
  TGI: 1790 nM
  GI50: 470 nM
  CC50: 4380 nM
ACHN
  TGI: 2100 nM
  GI50: 820 nM
  CC50: 4770 nM
CAKI-1
  TGI: 3030 nM
  GI50: 1040 nM
  CC50: 8800 nM
RXF 393; Homo sapiens
  GI50: 260 nM
RXF 393; Homo sapiens, RXF 393, read-out: LC50
  CC50: 3600 nM
RXF 393
  TGI: 900 nM
HS 578T
  TGI: >100000 nM
BT-549
  TGI: 2720 nM
BT-549; Homo sapiens
  GI50: 1220 nM
BT-549; Homo sapiens, BT-549, read-out: LC50
  CC50: 6070 nM
T-47D
  GI50: 910 nM
  CC50: > 100000 nM
  TGI: 9110 nM
[5]
  GI50: 160 to 3600 nM

## CCCCN1CCN(c2ccc3[nH]c(-c4ccc5[nH]c(-c6ccc(OCC)c(OCC)c6)nc5c4)nc3c2)CC1 [12a, 5-(4-Butylpiperazin-1-yl)-2-(2-(3,4-diethoxyphenyl)-1H-benzo[d]imidazol-5-yl)-1H-benzo[d]imidazole]
[1]; r = 0.5
  ΔTm: 2 °C
[1]; r = 0.5, oligo 2.5 μM
  Tm: 56.7 °C
[1]; r = 1
  Tm: 57.7 °C
  ΔTm: 3 °C
[1]; r = 1.5
  Tm: 58.7 °C
  ΔTm: 4 °C
[1]; r = 2.0
  Tm: 61.7 °C
  ΔTm: 7 °C
[2]; r = 0.5
  ΔTm: 1 °C
[2]; r = 0.5, oligo 2.5 μM
  Tm: 57.9 °C
[2]; r = 1
  Tm: 58.9 °C
  ΔTm: 2 °C
[2]; r = 1.5
  Tm: 58.9 °C
  ΔTm: 2 °C
[2]; r = 2.0
  Tm: 59.9 °C
  ΔTm: 3 °C
[3]
  Ka binding affinity with oligo-1: 1 × 10^7 M^–1
[4]
  Ka binding affinity with oligo-2: 4 × 10^6 M^1
NIH3T3
  IC50: 8200 nM
MOLT-4
  GI50: 1220 nM
  CC50: 31600 nM
  TGI: 3860 nM
A549/ATCC
  TGI: 2930 nM
  GI50: 1180 nM
EKVX
  TGI: 3180 nM
EKVX; Homo sapiens
  GI50: 1380 nM
NCI-H226
  GI50: 1290 nM
  CC50: > 100000 nM
  TGI: 3950 nM
NCI-H460
  GI50: 530 nM
  CC50: 5310 nM
  TGI: 1860 nM
NCI-H522; Homo sapiens
  GI50: 1200 nM
NCI-H522; Homo sapiens, NCI-H522, read-out: LC50
  CC50: > 100000 nM
NCI-H522
  TGI: 3970 nM
HT29
  TGI: 2970 nM
  GI50: 800 nM
  CC50: 100000 nM
KM12
  GI50: 1420 nM
  CC50: 6280 nM
  TGI: 2990 nM
SF-295; Homo sapiens
  GI50: 700 nM
SF-295
  TGI: 2260 nM
U251
  GI50: 1280 nM
  CC50: 5650 nM
  TGI: 2690 nM
M14
  GI50: 310 nM
  CC50: 4680 nM
  TGI: 1550 nM
MDA-MB-435
  GI50: 1090 nM
  CC50: 5240 nM
  TGI: 2390 nM
SK-MEL-28
  GI50: 1010 nM
  CC50: 4860 nM
  TGI: 2220 nM
SK-MEL-5
  GI50: 1090 nM
  CC50: 9220 nM
  TGI: 3160 nM
UACC-257
  GI50: 1210 nM
  CC50: > 100000 nM
  TGI: 10500 nM
IGROV1; Homo sapiens
  GI50: 1150 nM
IGROV1
  TGI: 2600 nM
OVCAR-4
  GI50: 1480 nM
  CC50: 6950 nM
  TGI: 3210 nM
OVCAR-5
  GI50: 1900 nM
  CC50: 6080 nM
  TGI: 3400 nM
786-0
  TGI: 2840 nM
  GI50: 1410 nM
  CC50: 5720 nM
A498
  TGI: 2470 nM
  GI50: 1180 nM
  CC50: 5160 nM
ACHN
  TGI: 2120 nM
  GI50: 920 nM
  CC50: 4650 nM
CAKI-1
  TGI: 2520 nM
  GI50: 1040 nM
  CC50: 6120 nM
RXF 393; Homo sapiens
  GI50: 1010 nM
RXF 393
  TGI: 2350 nM
HS 578T
  TGI: 3900 nM
HS 578T; Homo sapiens, Hs-578T
  GI50: 1540 nM
BT-549
  TGI: 3070 nM
BT-549; Homo sapiens
  GI50: 1550 nM
T-47D
  GI50: 1360 nM
  CC50: > 100000 nM
  TGI: 7880 nM
[5]
  GI50: 160 to 3600 nM
